The record followed here is patent US10000471B2, “Pyrazole P38 map kinase inhibitors” (Respivert Limited, priority 2010, dated 2018).

The test system of data set [1] is TNFα release in d-U937 cells. Put plainly: LPS-induced TNFα release in d-U937 cells. Format: cell-based, human. An outline of the steps:
(§1)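 PMA-differentiated (100 ng/ml, 48–72 hr) U937 macrophage-type cells pre-incubated 2 hr with compound, then stimulated 4 hr with 0.1 μg/mL E. coli O111:B4 LPS; supernatant TNFα and IL-8 measured by sandwich ELISA. TNFα inhibition expressed relative to 10 μg/mL BIRB796, giving REC50; IL-8 inhibition versus vehicle, giving IC50.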

Data set [2] has as its system ICAM-1 induction in BEAS2B cells. In words: Poly I:C-induced ICAM-1 induction in BEAS2B cells. Format: cell-based, human. As to conditions: read-out: PolyIC/ICAM1 IC50 BEAS2B. An outline of the steps:
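Human bronchial epithelial BEAS2B cells were pre-incubated with compound for 2 hr, then transfected with 1 μg/mL poly I:C. After 18 hr, surface ICAM-1 was measured by cell-based ELISA (OD450-655) and normalized to crystal violet cell counts (OD595). IC50 came from inhibition versus vehicle across the concentration-response curve.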

Data set [3] addresses T1, p38 MAPKα isoform (MAPK14) (Homo sapiens, UniProt Q16539).
T1 construct: purchased Invitrogen
Put plainly: Enzyme inhibition assay (FRET, Z-LYTE), p38 MAPKα via MAPKAP-K2 activation. Format: biochemical. As to conditions: read-out: Enzyme Inhibition IC50 p38α. An outline of the steps:
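Recombinant p38 MAPKα was preincubated with compound for 2 h at RT. Its activity was measured indirectly through activation/phosphorylation of downstream MAPKAP-K2, with a Z-LYTE FRET peptide read-out (coumarin/fluorescein ratio) after a 1 h development step. IC50 came from concentration-response curves of percent inhibition versus an uninhibited control.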

The test system of data set [4] is TNFα release in THP-1 cells. In words: LPS-induced TNFα release in THP-1 cells. The format is cell-based, human. An outline of the steps:
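Human monocytic THP-1 cells stimulated with 3 μg/mL E. coli LPS for 4 hr; supernatant TNFα measured by sandwich ELISA. Inhibition at each concentration versus vehicle control, IC50 from concentration-response curve.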

Data set [5] has as its system IL-8 release in d-U937 cells. Put plainly: LPS-induced IL-8 release in d-U937 cells. Format: cell-based, human. An outline of the steps: as §1
Another data set addresses T2, p38 MAPKγ (MAPK12) (Homo sapiens, UniProt P53778).
T2 construct: purchased Invitrogen
T2 sequence (P53778 1-367): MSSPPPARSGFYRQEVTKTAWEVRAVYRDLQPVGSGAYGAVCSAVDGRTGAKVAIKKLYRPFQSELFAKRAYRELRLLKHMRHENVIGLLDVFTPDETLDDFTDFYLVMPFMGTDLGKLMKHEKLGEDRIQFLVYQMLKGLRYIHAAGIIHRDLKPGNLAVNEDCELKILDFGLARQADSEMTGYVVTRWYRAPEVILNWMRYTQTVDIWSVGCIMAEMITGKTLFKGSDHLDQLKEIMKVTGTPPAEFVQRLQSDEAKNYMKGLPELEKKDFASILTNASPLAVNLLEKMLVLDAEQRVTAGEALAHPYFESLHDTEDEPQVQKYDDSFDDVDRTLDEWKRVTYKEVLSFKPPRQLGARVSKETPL
Put plainly: Enzyme inhibition assay (FRET, Z-LYTE), p38 MAPKγ. The format is biochemical. As to conditions: read-out: Enzyme Inhibition IC50 p38γ. An outline of the steps:
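Recombinant phosphorylated p38 MAPKγ preincubated 2 h at RT with compound in HEPES buffer, then 2 μM FRET peptide and 100 μM ATP added for 1 h; protease development 1 h. Coumarin/fluorescein emission ratio gave phosphorylation; IC50 from concentration-response versus uninhibited control.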

Data set [6] relates to Differentiated U937 cells. Put plainly: Cell viability MTT assay. The format is cell-based, human. As to conditions: negative = apparent increase in viability; for MTT Assay (Viability) 4 h d-U937, percentage loss of cell viability: 4 hr in 5% FCS; for MTT Assay (Viability) 24 h d-U937, percentage loss of cell viability: 24 h in 10% FCS. An outline of the steps: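 Differentiated U937 cells pre-incubated with compound either 4 hr in 5% FCS or 24 h in 10% FCS, then 1 hr MTT. Formazan dissolved in DMSO, absorbance at 550 nm. Percentage viability loss relative to 0.5% DMSO vehicle; apparent increases appear as negative percentages.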

Setting [7] is: Homo sapiens, dU937, relative to 10 μg/mL BIRB796, read-out: LPS/TNFα REC50 d-U937.

SMILES strings stand for the structures. pEC50, pIC50: −log10 of the molar value. Read-outs that look alike come from different tables or passages of the source.

T1 sequence (Q16539 whole entry, canonical isoform): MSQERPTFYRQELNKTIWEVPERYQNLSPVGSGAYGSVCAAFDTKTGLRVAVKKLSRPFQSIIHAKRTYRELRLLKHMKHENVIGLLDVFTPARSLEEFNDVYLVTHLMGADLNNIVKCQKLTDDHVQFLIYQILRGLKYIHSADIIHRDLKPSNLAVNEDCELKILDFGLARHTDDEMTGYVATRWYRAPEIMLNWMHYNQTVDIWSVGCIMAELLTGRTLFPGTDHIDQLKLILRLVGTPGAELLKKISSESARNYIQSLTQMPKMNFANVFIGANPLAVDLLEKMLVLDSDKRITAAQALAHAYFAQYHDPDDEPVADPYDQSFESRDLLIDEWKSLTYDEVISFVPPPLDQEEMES

In the case of `CC(C)(C)c1cc(NC(=O)Nc2ccc(Oc3ccnc(NC(=O)N4CCCC4)c3)c(Cl)c2Cl)n(-c2ccc(CO)cc2)n1` [Example 77, N-(4-(4-(3-(3-tert-butyl-1-(4-hydroxymethylphenyl)-1H-pyrazol-5-yl)ureido)-2,3-dichlorophenoxy)pyridin-2-yl)pyrrolidine-1-carboxamide], in data set [1] (setting [7]), the pEC50 is 9.70. Moreover, the pIC50 was 8.60 in data set [2] (Homo sapiens, BEAS-2B); 7.74 in data set [3]; 9.40 in data set [4] (Homo sapiens); 9.40 in data set [5] (Homo sapiens, dU937); 7.61 on p38 MAPKγ (MAPK12). For the same compound, the “MTT Assay (Viability) 4 h d-U937, percentage loss of cell viability” value in data set [6] was −8.8%. The “MTT Assay (Viability) 24 h d-U937, percentage loss of cell viability” value in data set [6] turned out to be 53.3%.
As to `COc1ccc(-n2nc(C(C)(C)C)cc2NC(=O)Nc2ccc(Oc3ccnc(NC(=O)NC4CC4)c3)c(C#N)c2Cl)cc1` [Example 78, 1-(3-tert-butyl-1-(4-methoxyphenyl)-1H-pyrazol-5-yl)-3-(2-chloro-3-cyano-4-(2-(3-cyclopropylureido)pyridin-4-yloxy)phenyl) urea], the pEC50 in data set [1] (setting [7]) was 8.80. For the same compound, the pIC50 is 8.66 in data set [2] (Homo sapiens, BEAS-2B); 7.07 in data set [3]; 8.85 in data set [4] (Homo sapiens); 8.66 in data set [5] (Homo sapiens, dU937); 7.02 at p38 MAPKγ (MAPK12). In addition, the “MTT Assay (Viability) 4 h d-U937, percentage loss of cell viability” value in data set [6] turned out to be 1.0%. Also, the “MTT Assay (Viability) 24 h d-U937, percentage loss of cell viability” value in data set [6] is recorded as 20.9%.
For the compound `COc1ccc(-n2nc(C(C)(C)C)cc2NC(=O)Nc2ccc(Oc3ccnc(NC(=O)N4CCCC4)c3)c(C#N)c2Cl)cc1` [Example 79, N-(4-(4-(3-(3-tert-butyl-1-(4-methoxyphenyl)-1H-pyrazol-5-yl)ureido)-3-chloro-2-cyanophenoxy)pyridin-2-yl)pyrrolidine-1-carboxamide], the pEC50 in data set [1] (setting [7]) is 9.40. For the same compound, the pIC50 in data set [2] (Homo sapiens, BEAS-2B) is 8.89; in data set [3] it was 7.49; in data set [4] (Homo sapiens) it was 9.30; in data set [5] (Homo sapiens, dU937), 8.18; at p38 MAPKγ (MAPK12), 7.44. For the same compound, in data set [6], the “MTT Assay (Viability) 4 h d-U937, percentage loss of cell viability” value is on record as −13.9%. The “MTT Assay (Viability) 24 h d-U937, percentage loss of cell viability” value in data set [6] was 23.2%.
For `COc1ccc(-n2nc(C(C)(C)C)cc2NC(=O)Nc2ccc(Oc3ccnc(NC(=O)N4CC[C@@H](N(C)C)C4)c3)c(Cl)c2Cl)cc1` [Example 81, (R)-N-(4-(4-(3-(3-tert-butyl-1-(4-methoxyphenyl)-1H-pyrazol-5-yl)ureido)-2,3-dichlorophenoxy)pyridin-2-yl)-3-(dimethylamino) pyrrolidine-1-carboxamide], in data set [1] (relative to 10 μg/mL BIRB796, read-out: LPS/TNFα REC50 d-U937), the pEC50 was 9.10. Further, the pIC50 was 7.85 in data set [2]; 8.11 in data set [3]; 8.96 in data set [4]; 8.31 in data set [5]; 7.23 at p38 MAPKγ (MAPK12). Also, the “MTT Assay (Viability) 4 h d-U937, percentage loss of cell viability” value in data set [6] is given as −8.7%. Besides, the “MTT Assay (Viability) 24 h d-U937, percentage loss of cell viability” value in data set [6] turned out to be 33.3%.
As to `COc1ccc(-n2nc(C(C)(C)C)cc2NC(=O)Nc2ccc(Oc3ccnc(NC(=O)N4CC[C@H](N(C)C)C4)c3)c(Cl)c2Cl)cc1` [Example 82, (S)-N-(4-(4-(3-(3-tert-butyl-1-(4-methoxyphenyl)-1H-pyrazol-5-yl)ureido)-2,3-dichlorophenoxy)pyridin-2-yl)-3-(dimethylamino) pyrrolidine-1-carboxamide], the pEC50 in data set [1] (setting [7]) is 8.74. The pIC50 was 8.68 in data set [2] (Homo sapiens, BEAS-2B); 7.85 in data set [3]; 9.52 in data set [4] (Homo sapiens); 8.34 in data set [5] (Homo sapiens, dU937); 7.47 on p38 MAPKγ (MAPK12). In addition, the “MTT Assay (Viability) 4 h d-U937, percentage loss of cell viability” value in data set [6] is reported as −13.2%. For the same compound, the “MTT Assay (Viability) 24 h d-U937, percentage loss of cell viability” value in data set [6] came to 20.5%.
As to `CN(C)[C@H]1CCN(C(=O)Nc2cc(Oc3ccc(NC(=O)Nc4cc(C(C)(C)C)nn4-c4ccc(CO)cc4)c(Cl)c3Cl)ccn2)C1` [Example 83, (S)-N-(4-(4-(3-(3-tert-butyl-1-(4-hydroxymethylphenyl)-1H-pyrazol-5-yl)ureido)-2,3-dichlorophenoxy)pyridin-2-yl)-3-(dimethyl-amino)pyrrolidine-1-carboxamide], the pEC50 in data set [1] (setting [7]) is 8.77. In addition, the pIC50 in data set [2] (Homo sapiens, BEAS-2B) was 8.62; in data set [3], 8.17; in data set [4] (Homo sapiens) it was 9.15; in data set [5] (Homo sapiens, dU937), 7.47; on p38 MAPKγ (MAPK12), 7.70. Besides, the “MTT Assay (Viability) 4 h d-U937, percentage loss of cell viability” value in data set [6] is −9.9%. The “MTT Assay (Viability) 24 h d-U937, percentage loss of cell viability” value in data set [6] came to 34.3%.
For `COc1cc(-n2nc(C(C)(C)C)cc2NC(=O)Nc2ccc(Oc3ccnc(NC(=O)N4CC[C@H](N(C)C)C4)c3)c(Cl)c2Cl)ccc1CO` [Example 84, (S)-N-(4-(4-(3-(3-tert-butyl-1-(4-hydroxymethyl-3-methoxyphenyl)-1H-pyrazol-5-yl)ureido)-2,3-dichlorophenoxy)pyridin-2-yl)-3-(dimethylamino)pyrrolidine-1-carboxamide], in data set [1] (setting [7]), the pEC50 is 8.85. The pIC50 was 8.59 in data set [2] (Homo sapiens, BEAS-2B); 7.86 in data set [3]; 8.92 in data set [4] (Homo sapiens); 8.02 in data set [5] (Homo sapiens, dU937); 7.57 at p38 MAPKγ (MAPK12). In addition, the “MTT Assay (Viability) 4 h d-U937, percentage loss of cell viability” value in data set [6] is recorded as 3.2%. Further, the “MTT Assay (Viability) 24 h d-U937, percentage loss of cell viability” value in data set [6] is listed as 56.7%.
In the case of `COc1ccc(-n2nc(C(C)(C)C)cc2NC(=O)Nc2ccc(Oc3ccnc(NC(=O)N4CCC(O)C4)c3)c(Cl)c2Cl)cc1` (centres unmarked) [Example 85, N-(4-(4-(3-(3-tert-butyl-1-(4-methoxyphenyl)-1H-pyrazol-5-yl)ureido)-2,3-dichlorophenoxy)pyridin-2-yl)-3-hydroxypyrrolidine-1-carboxamide], the pEC50 in data set [1] (setting [7]) is 8.96. Also, the pIC50 in data set [2] (Homo sapiens, BEAS-2B) was 9.22; in data set [3] it was 7.89; in data set [4] (Homo sapiens) it was 9.52; in data set [5] (Homo sapiens, dU937), 8.27; at p38 MAPKγ (MAPK12), 7.57. Further, the “MTT Assay (Viability) 4 h d-U937, percentage loss of cell viability” value in data set [6] was −25.1%. Also, in data set [6], the “MTT Assay (Viability) 24 h d-U937, percentage loss of cell viability” value is recorded as 58.6%.
For `COc1ccc(-n2nc(C(C)(C)C)cc2NC(=O)Nc2ccc(Oc3ccnc(NC(=O)N4CCCC4(C)C)c3)c(Cl)c2Cl)cc1` [Example 86, N-(4-(4-(3-(3-tert-butyl-1-(4-methoxyphenyl)-1H-pyrazol-5-yl)ureido)-2,3-dichlorophenoxy)pyridin-2-yl)-2,2-dimethylpyrrolidine-1-carboxamide], the pEC50 in data set [1] (setting [7]) was 8.57. Also, the pIC50 is 8.10 in data set [2] (Homo sapiens, BEAS-2B); 6.86 in data set [3]; 9.10 in data set [4] (Homo sapiens); 8.59 in data set [5] (Homo sapiens, dU937); 6.36 on p38 MAPKγ (MAPK12). Besides, the “MTT Assay (Viability) 4 h d-U937, percentage loss of cell viability” value in data set [6] was −5.1%. In addition, the “MTT Assay (Viability) 24 h d-U937, percentage loss of cell viability” value in data set [6] is 26.7%.
Turning to `COc1ccc(-n2nc(C(C)(C)C)cc2NC(=O)Nc2ccc(Oc3ccnc(NC(=O)N4CCC(N(C)C)CC4)c3)c(Cl)c2Cl)cc1` [Example 87, N-(4-(4-(3-(3-tert-butyl-1-(4-methoxyphenyl)-1H-pyrazol-5-yl)ureido)-2,3-dichlorophenoxy)pyridin-2-yl)-4-(dimethylamino)piperidine-1-carboxamide], the pEC50 in data set [1] (setting [7]) was 8.77. Further, the pIC50 in data set [2] (Homo sapiens, BEAS-2B) is 9.00; in data set [3], 7.84; in data set [4] (Homo sapiens), 9.00; in data set [5] (Homo sapiens, dU937) it was 8.68; on p38 MAPKγ (MAPK12), 7.77. Further, in data set [6], the “MTT Assay (Viability) 4 h d-U937, percentage loss of cell viability” value is 7.1%. Also, in data set [6], the “MTT Assay (Viability) 24 h d-U937, percentage loss of cell viability” value stood at 39.3%.
